Experimental data: ChEMBL document CHEMBL4339204, “Synthesis of α-methylstilbenes using an aqueous Wittig methodology and application toward the development of potent human aromatase inhibitors” (Bioorg Med Chem Lett, 2019)

Biological target: T1, Aromatase (Homo sapiens, UniProt P11511)
T1 sequence (P11511 whole entry): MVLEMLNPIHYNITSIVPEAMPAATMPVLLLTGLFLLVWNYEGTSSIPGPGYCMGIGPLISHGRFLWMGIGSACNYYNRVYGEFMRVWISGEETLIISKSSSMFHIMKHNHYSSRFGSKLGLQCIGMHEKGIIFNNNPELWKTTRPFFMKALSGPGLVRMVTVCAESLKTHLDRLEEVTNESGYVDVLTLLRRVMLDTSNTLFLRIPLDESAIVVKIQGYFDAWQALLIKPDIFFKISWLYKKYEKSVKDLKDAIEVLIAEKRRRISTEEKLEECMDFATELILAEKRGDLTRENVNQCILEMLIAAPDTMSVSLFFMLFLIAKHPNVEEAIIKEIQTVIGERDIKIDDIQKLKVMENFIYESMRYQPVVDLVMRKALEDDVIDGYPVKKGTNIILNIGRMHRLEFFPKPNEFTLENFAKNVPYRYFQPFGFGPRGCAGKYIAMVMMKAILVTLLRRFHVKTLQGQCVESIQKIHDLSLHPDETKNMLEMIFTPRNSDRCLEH
Description: Inhibition of recombinant human CYP19A1 using DBF as substrate measured after 1 hr by fluorescence assay

Row | Compound | Ki
1 | Clc1ccc(/C=C(\Cn2ccnn2)c2ccc(Cl)cc2)cc1 | 8 nM
2 | Brc1ccc(/C=C(\Cn2ccnn2)c2ccc(Br)cc2)cc1 | 24 nM
3 | Clc1ccc(/C=C(/Cn2ccnn2)c2ccc(Cl)cc2)cc1 | 97 nM
4 | Brc1ccc(/C=C(/Cn2ccnn2)c2ccc(Br)cc2)cc1 | 450 nM
5 | Clc1ccc(/C(=C\c2ccccc2)Cn2ccnn2)cc1 | 81 nM
6 | Brc1ccc(/C(=C/c2ccccc2)Cn2ccnn2)cc1 | 74 nM
7 | C(=C(\Cn1cncn1)c1ccccc1)/c1ccccc1 | 79 nM
8 | C(=C(/Cn1cncn1)c1ccccc1)/c1ccccc1 | 32 nM
9 | Clc1ccc(/C(=C/c2ccccc2)Cn2ccnn2)cc1 | 57 nM
10 | Brc1ccc(/C(=C\c2ccccc2)Cn2ccnn2)cc1 | 125 nM
11 | c1ccc(CC(Cn2ccnn2)c2ccccc2)cc1 (stereo unspecified) | 290 nM
